What was measured:
Settings in all cases: 72 h
Caco-2 [1] = assay: cell viability relative to DMSO; higher = less toxic
Calu-3 [2] = assay: as above
HepG2 [3] = assay: as above
Caco-2 [4] = assay: relative viability EC50 (midpoint between 100% and the lowest measured viability); higher = less toxic
Calu-3 [5] = assay: as above
HepG2 [6] = assay: as above
Caco-2 [7] = assay: drug sensitivity score (DSS) for viability; higher = more toxic; extreme values may be limits of the assay
Calu-3 [8] = assay: as above
HepG2 [9] = assay: as above
U2OS [10] = assay: cell viability relative to DMSO; higher = less toxic
Vero E6 [11] = assay: as above
U2OS [12] = assay: relative viability EC50 (midpoint between 100% and the lowest measured viability); higher = less toxic
Vero E6 [13] = assay: as above
U2OS [14] = assay: drug sensitivity score (DSS) for viability; higher = more toxic; extreme values may be limits of the assay
Vero E6 [15] = assay: as above

Row | SMILES | cell viability (Caco-2 [1]; 1 nM) | cell viability (Caco-2 [1]; 10 nM) | cell viability (Caco-2 [1]; 100 nM) | cell viability (Caco-2 [1]; 1000 nM) | cell viability (Caco-2 [1]; 10000 nM) | cell viability (Calu-3 [2]; 1 nM) | cell viability (Calu-3 [2]; 10 nM) | cell viability (Calu-3 [2]; 100 nM) | cell viability (Calu-3 [2]; 1000 nM) | cell viability (Calu-3 [2]; 10000 nM) | cell viability (HepG2 [3]; 1 nM) | cell viability (HepG2 [3]; 10 nM) | cell viability (HepG2 [3]; 100 nM) | cell viability (HepG2 [3]; 1000 nM) | cell viability (HepG2 [3]; 10000 nM) | relative viability EC50 (Caco-2 [4]) | relative viability EC50 (Calu-3 [5]) | relative viability EC50 (HepG2 [6]) | drug sensitivity score (Caco-2 [7]) | drug sensitivity score (Calu-3 [8]) | drug sensitivity score (HepG2 [9]) | cell viability (U2OS [10]; 1 nM) | cell viability (U2OS [10]; 10 nM) | cell viability (U2OS [10]; 100 nM) | cell viability (U2OS [10]; 1000 nM) | cell viability (U2OS [10]; 10000 nM) | cell viability (Vero E6 [11]; 1 nM) | cell viability (Vero E6 [11]; 10 nM) | cell viability (Vero E6 [11]; 100 nM) | cell viability (Vero E6 [11]; 1000 nM) | cell viability (Vero E6 [11]; 10000 nM) | relative viability EC50 (U2OS [12]) | relative viability EC50 (Vero E6 [13]) | drug sensitivity score (U2OS [14]) | drug sensitivity score (Vero E6 [15])
1 | O=C(Nc1cc(Oc2cc(F)c(NC(=O)C3(C(=O)Nc4ccc(F)cc4)CC3)cc2F)ccn1)C1CC1 [altiratinib] | 113% | 106% | 104% | 101% | 99.3% | 98.5% | 110% | 97.1% | 109% | 95.5% | 107% | 103% | 94.7% | 35.8% | 58.5% | > 10 µM | > 10 µM | 0.25 µM | 0 | 0 | 12.6 |  |  |  |  |  |  |  |  |  |  |  |  |  | 
2 | N=C(N)NN=C1C=CC(=NNC(N)=S)C=C1 [ambazone] | 88.4% | 94.9% | 94.6% | 91.2% | 92.7% | 105% | 95.8% | 94.1% | 98.2% | 118% | 97.1% | 95.3% | 102% | 83.4% | 63.2% | > 10 µM | > 10 µM |  | 0 | 0 | 3.9 | 95% | 94.8% | 97.9% | 99.3% | 95% | 90.9% | 95.1% | 102% | 100% | 103% | > 10 µM | > 10 µM | 0 | 0
3 | Cc1ccc2c(Br)cc(Br)c(OC(=O)c3ccccc3)c2n1 [broxaldine] | 84.9% | 100% | 84.9% | 93.8% | 29.2% | 103% | 99.8% | 87.6% | 97.4% | 66.5% | 111% | 95.5% | 116% | 93.7% | 19.6% | 2.44 µM |  | 2.53 µM | 4.9 | 2 | 5.4 | 98.2% | 102% | 98% | 92.7% | 42.4% | 109% | 108% | 109% | 98.3% | 54.8% | 2.14 µM |  | 4.3 | 2.5
4 | Cc1cc(O)c(C(=O)N[C@@H](C(=O)N[C@@H]2C(=O)N3C(C(=O)O)=C(CSc4nnnn4C)CS[C@H]23)c2ccc(O)cc2)cn1 [cefpiramide] | 94.2% | 106% | 116% | 110% | 95.3% | 99% | 102% | 108% | 106% | 98% |  |  |  |  |  | > 10 µM | > 10 µM |  | 0 | 0 |  | 93.4% | 98.3% | 96.5% | 99.5% | 101% | 101% | 94.1% | 100% | 104% | 96.3% | > 10 µM | > 10 µM | 0 | 0
5 | Cc1cc(C2CCCCC2)n(O)c(=O)c1 [ciclopirox] | 99.9% | 90.1% | 96% | 77% | 38.7% | 108% | 109% | 94.3% | 95.7% | 44.8% | 91.8% | 96.4% | 95.9% | 85.9% | 27.2% | 1.31 µM | 2.52 µM | 1.76 µM | 6.1 | 3.6 | 6.3 | 105% | 95.2% | 101% | 87.9% | 52.1% | 94.6% | 100% | 90.1% | 89.6% | 63.4% |  |  | 4.4 | 2.7
6 | CC(C)(C)NCC(O)c1cc(Cl)c(N)c(Cl)c1 (stereo not given) [clenbuterol] | 93.7% | 89.9% | 103% | 90.8% | 117% | 108% | 85.1% | 100% | 93.7% | 97.4% |  |  |  |  |  | > 10 µM | > 10 µM |  | 0 | 0 |  | 97.6% | 95% | 105% | 98.2% | 96.9% | 95.3% | 101% | 97.8% | 104% | 112% | > 10 µM | > 10 µM | 0 | 0
7 | Clc1cccc(Cl)c1NC1=NCCN1 [clonidine] | 95.3% | 95.6% | 96.1% | 84.1% | 94% | 98.4% | 87.9% | 90.4% | 87% | 88.8% |  |  |  |  |  | > 10 µM | > 10 µM |  | 0 | 2.3 |  | 103% | 103% | 95.9% | 101% | 98.5% | 95.6% | 101% | 102% | 99.3% | 95.2% | > 10 µM | > 10 µM | 0 | 0
8 | N#CCNC(=O)c1ccc(-c2ccnc(Nc3ccc(N4CCOCC4)cc3)n2)cc1 [cyt387] | 99.5% | 103% | 101% | 103% | 61.8% |  |  |  |  |  | 109% | 105% | 101% | 88.7% | 21.6% |  |  | 2.02 µM | 1.6 |  | 6.2 | 99.9% | 107% | 99.4% | 95.6% | 36.6% | 102% | 100% | 96.6% | 94.7% | 52.5% | 2.6 µM |  | 4.1 | 3.4
9 | Nc1ncn([C@H]2C[C@H](O)[C@@H](CO)O2)c(=O)n1 [decitabine] | 97.2% | 88.3% | 82.2% | 89.4% | 88.4% | 109% | 105% | 101% | 107% | 93.5% | 95.8% | 98.6% | 82.6% | 71.9% | 69.8% | > 10 µM | > 10 µM |  | 1.7 | 0 | 6.6 | 102% | 102% | 99.9% | 100% | 101% | 103% | 102% | 95.1% | 93% | 93.2% | > 10 µM | > 10 µM | 0 | 0
10 | CCN(CC)S(=O)(=O)c1ccc(C(=O)O)cc1 [etebenecid] | 99.7% | 110% | 107% | 92.5% | 108% | 110% | 93.9% | 106% | 95.2% | 111% | 109% | 110% | 98.4% | 112% | 101% | > 10 µM | > 10 µM | > 10 µM | 0 | 0 | 0 |  |  |  |  |  |  |  |  |  |  |  |  |  | 
11 | Cn1c(=O)c2c(ncn2CCOC(=O)C(C)(C)Oc2ccc(Cl)cc2)n(C)c1=O [etofylline-clofibrate] | 98% | 100% | 89.4% | 91.4% | 93.9% | 96.1% | 98.9% | 93.2% | 94.3% | 89.5% |  |  |  |  |  | > 10 µM | > 10 µM |  | 0.3 | 0 |  | 98% | 91.9% | 101% | 95.9% | 97.3% | 92.8% | 109% | 91.6% | 96.1% | 104% | > 10 µM | > 10 µM | 0 | 0
12 | CC(O)CN1CCN(CC(=O)[O-])CCN(CC(=O)[O-])CCN(CC(=O)[O-])CC1.[Gd+3] (stereo not given) [gadoteridol] | 103% | 110% | 96% | 142% | 92.1% | 101% | 91.2% | 95.3% | 102% | 96.1% |  |  |  |  |  | > 10 µM | > 10 µM |  | 0 | 0 |  | 93.2% | 103% | 98.5% | 99.1% | 103% | 94.7% | 93.1% | 110% | 93.1% | 105% | > 10 µM | > 10 µM | 0 | 0
13 | CN(C)CCN(Cc1cccs1)c1ccccn1 [methapyrilene] | 103% | 95.2% | 94.2% | 104% | 107% | 101% | 101% | 92.6% | 89.3% | 89.7% |  |  |  |  |  | > 10 µM | > 10 µM |  | 0 | 0.3 |  | 102% | 102% | 97.9% | 102% | 96.7% | 98.1% | 99.9% | 101% | 96.4% | 96.3% | > 10 µM | > 10 µM | 0 | 0
14 | Cc1ccccc1C(=O)Nc1ccc(C(=O)N2CCCC(N(C)C)c3ccccc32)cc1 (stereo not given) [mozavaptan] | 97% | 99.8% | 88.8% | 76.6% | 70.2% | 94.9% | 109% | 95.6% | 105% | 64.9% | 98.2% | 99.5% | 93.3% | 99.5% | 44.3% |  |  | 3.1 µM | 4.7 | 1.4 | 3.1 | 98.1% | 102% | 94.5% | 98% | 48.8% | 100% | 103% | 98.3% | 98.4% | 51.6% | 2.87 µM |  | 3 | 2.7
15 | C[C@](O)(COc1ccc(C#N)cc1)C(=O)Nc1ccc(C#N)c(C(F)(F)F)c1 [ostarine] |  |  |  |  |  | 109% | 98.9% | 99.4% | 95.9% | 97.9% | 107% | 107% | 103% | 109% | 92.8% |  | > 10 µM | > 10 µM |  | 0 | 0 |  |  |  |  |  |  |  |  |  |  |  |  |  | 
16 | N#C/C(=C\c1ccc(O)c(O)c1)C(=O)Nc1ccccc1 [tyrphostin-AG-494] | 110% | 99.8% | 104% | 95.7% | 88.3% | 93.5% | 102% | 95.1% | 101% | 107% | 101% | 102% | 98.6% | 110% | 54.6% | > 10 µM | > 10 µM |  | 0.2 | 0 | 1.8 | 105% | 102% | 99.2% | 97.3% | 93.1% | 104% | 100% | 104% | 105% | 90.6% | > 10 µM | > 10 µM | 0 | 0
